Laboratory results taken from paper PMC10175918 (Communications Biology, 2023).
Like-named read-outs stand apart in the source and are kept apart here.

Legend:
Assay in all cases: TGFα-shedding assay-based GPCR screening with chimeric Gα subunit proteins
Format in all cases: cell-based
348 GPCRs [1] = target: T1, 348 GPCRs (Homo sapiens, UniProt P49238); conditions: GPCR CX3CR1 (chemokine (C-X3-C motif) receptor 1)
T1 construct: expressed in transfected cells; host or cells: HEK293A
T1 sequence (P49238 1-355): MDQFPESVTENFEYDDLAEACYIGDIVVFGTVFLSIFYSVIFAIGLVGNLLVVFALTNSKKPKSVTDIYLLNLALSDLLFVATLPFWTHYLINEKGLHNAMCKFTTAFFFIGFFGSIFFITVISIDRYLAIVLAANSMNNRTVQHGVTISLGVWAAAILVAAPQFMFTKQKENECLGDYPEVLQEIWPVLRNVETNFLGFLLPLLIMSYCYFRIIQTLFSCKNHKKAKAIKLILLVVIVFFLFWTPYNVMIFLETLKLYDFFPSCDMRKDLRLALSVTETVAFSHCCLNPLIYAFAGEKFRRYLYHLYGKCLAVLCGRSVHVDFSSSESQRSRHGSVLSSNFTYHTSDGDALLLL

348 GPCRs [2] = target: 348 GPCRs (Homo sapiens, UniProt P28221); conditions: 10µM, Favipiravir 100μM
Chain of 348 GPCRs (Homo sapiens, UniProt P28221) (P28221 whole entry): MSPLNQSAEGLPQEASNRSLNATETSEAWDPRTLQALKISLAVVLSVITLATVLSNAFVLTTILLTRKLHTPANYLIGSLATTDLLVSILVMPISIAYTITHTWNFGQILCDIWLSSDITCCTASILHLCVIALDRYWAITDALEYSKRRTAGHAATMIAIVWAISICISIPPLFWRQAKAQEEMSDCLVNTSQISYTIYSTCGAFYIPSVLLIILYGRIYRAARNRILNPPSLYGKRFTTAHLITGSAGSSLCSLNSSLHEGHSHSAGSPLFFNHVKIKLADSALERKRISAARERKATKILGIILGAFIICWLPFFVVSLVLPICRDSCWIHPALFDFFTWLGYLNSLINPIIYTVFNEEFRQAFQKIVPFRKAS

348 GPCRs [3] = target: T2, 348 GPCRs (Homo sapiens, UniProt Q13258); conditions: 10µM, Favipiravir 100μM
T2 sequence (Q13258 1-359): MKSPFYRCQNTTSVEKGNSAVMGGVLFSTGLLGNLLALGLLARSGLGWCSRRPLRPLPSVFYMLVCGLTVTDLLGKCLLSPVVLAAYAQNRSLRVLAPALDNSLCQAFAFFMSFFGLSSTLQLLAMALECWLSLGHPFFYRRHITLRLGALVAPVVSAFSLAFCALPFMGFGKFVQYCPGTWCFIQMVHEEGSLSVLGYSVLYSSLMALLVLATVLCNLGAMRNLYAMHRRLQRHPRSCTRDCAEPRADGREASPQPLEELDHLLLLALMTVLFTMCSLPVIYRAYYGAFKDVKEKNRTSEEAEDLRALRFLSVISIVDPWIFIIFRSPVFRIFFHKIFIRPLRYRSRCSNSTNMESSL

348 GPCRs [4] = target: T3, 348 GPCRs (Homo sapiens, UniProt P48544); conditions: 10µM, Favipiravir 100μM
T3 construct: expressed in transfected cells; host or cells: HEK293A
T3 sequence (P48544 1-419): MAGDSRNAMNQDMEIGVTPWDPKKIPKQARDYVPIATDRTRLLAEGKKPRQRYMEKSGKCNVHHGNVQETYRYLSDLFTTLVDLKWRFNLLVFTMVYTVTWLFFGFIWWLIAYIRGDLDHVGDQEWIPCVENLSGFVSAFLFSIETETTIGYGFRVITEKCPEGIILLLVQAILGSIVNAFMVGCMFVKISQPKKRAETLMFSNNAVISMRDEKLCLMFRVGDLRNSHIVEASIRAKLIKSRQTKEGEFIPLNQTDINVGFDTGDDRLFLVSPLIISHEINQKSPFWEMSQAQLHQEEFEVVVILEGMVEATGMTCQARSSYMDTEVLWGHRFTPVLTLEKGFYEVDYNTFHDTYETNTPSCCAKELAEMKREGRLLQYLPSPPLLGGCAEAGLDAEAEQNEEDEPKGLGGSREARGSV

348 GPCRs [5] = target: T4, 348 GPCRs (Homo sapiens, UniProt Q9HBW9); conditions: 10µM, Favipiravir 100μM
T4 construct: expressed in transfected cells; host or cells: HEK293A
T4 sequence (Q9HBW9 20-690): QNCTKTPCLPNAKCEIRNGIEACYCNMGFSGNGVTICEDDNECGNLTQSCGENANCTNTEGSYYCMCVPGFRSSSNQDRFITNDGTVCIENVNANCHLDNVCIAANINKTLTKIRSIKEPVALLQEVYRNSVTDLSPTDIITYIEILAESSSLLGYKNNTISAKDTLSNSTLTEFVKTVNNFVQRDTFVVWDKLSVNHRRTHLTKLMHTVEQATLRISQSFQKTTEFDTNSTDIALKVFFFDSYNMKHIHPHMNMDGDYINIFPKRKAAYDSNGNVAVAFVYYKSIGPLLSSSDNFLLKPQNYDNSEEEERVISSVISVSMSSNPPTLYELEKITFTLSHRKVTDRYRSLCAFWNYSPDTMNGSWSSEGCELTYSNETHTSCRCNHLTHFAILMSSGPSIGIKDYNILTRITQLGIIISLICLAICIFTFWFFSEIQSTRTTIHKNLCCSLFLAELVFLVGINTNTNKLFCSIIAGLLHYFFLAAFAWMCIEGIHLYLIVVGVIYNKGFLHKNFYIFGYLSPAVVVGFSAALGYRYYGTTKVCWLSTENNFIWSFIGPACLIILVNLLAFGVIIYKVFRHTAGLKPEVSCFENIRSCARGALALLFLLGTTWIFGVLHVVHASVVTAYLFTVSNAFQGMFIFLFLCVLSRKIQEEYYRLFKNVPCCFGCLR

348 GPCRs [6] = target: T5, 348 GPCRs (Homo sapiens, UniProt Q9GZN0); conditions: 10µM, Favipiravir 100μM
T5 construct: expressed in transfected cells; host or cells: HEK293A
T5 sequence (Q9GZN0 whole entry): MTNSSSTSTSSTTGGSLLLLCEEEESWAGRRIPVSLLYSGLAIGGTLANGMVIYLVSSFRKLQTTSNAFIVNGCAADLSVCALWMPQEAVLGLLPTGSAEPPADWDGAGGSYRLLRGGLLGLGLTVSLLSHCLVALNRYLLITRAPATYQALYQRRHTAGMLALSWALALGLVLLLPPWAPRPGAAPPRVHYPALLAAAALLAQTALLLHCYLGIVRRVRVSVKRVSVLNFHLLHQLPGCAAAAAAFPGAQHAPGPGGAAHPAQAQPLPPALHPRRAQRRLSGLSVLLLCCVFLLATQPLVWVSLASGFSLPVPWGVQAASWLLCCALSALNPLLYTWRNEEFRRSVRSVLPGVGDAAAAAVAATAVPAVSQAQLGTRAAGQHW

348 GPCRs [7] = target: T6, 348 GPCRs (Homo sapiens, UniProt P46092); conditions: 10µM, Favipiravir 100μM
T6 construct: expressed in transfected cells; host or cells: HEK293A
T6 sequence (P46092 1-362): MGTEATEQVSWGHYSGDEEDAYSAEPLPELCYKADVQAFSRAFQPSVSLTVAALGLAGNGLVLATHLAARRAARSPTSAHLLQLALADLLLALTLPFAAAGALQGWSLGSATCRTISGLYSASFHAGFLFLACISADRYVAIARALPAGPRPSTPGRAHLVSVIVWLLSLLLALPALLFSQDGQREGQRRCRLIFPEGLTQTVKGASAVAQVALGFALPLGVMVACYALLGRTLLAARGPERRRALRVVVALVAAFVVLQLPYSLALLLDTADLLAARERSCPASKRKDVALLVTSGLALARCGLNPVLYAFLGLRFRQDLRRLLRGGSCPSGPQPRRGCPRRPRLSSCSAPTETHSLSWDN

[8] = 5-HT1D (5-hydroxytryptamine receptor 1D), read-out: % GPCR activation compared to TPA
[9] = DP (prostaglandin D2 receptor), read-out: % GPCR activation compared to TPA
[10] = KCNJ5 (potassium inwardly rectifying channel, subfamily J, member 5), read-out: % GPCR activation compared to TPA
[11] = ELTD1 (EGF, latrophilin and seven transmembrane domain containing 1), read-out: % GPCR activation compared to TPA
[12] = GPR88 (G Protein-Coupled Receptor 88), read-out: % GPCR activation compared to TPA
[13] = CCR10 (C-C motif chemokine receptor 10), read-out: % GPCR activation compared to TPA
[14] = read-out: % GPCR activation compared to TPA, 5-HT1D (5-hydroxytryptamine receptor 1D)
[15] = read-out: % GPCR activation compared to TPA, DP (prostaglandin D2 receptor)
[16] = read-out: % GPCR activation compared to TPA, KCNJ5 (potassium inwardly rectifying channel, subfamily J, member 5)
[17] = read-out: % GPCR activation compared to TPA, ELTD1 (EGF, latrophilin and seven transmembrane domain containing 1)
[18] = read-out: % GPCR activation compared to TPA, GPR88 (G Protein-Coupled Receptor 88)
[19] = read-out: % GPCR activation compared to TPA, CCR10 (C-C motif chemokine receptor 10)

| SMILES | activation at 100 µM (348 GPCRs [2]; [8]) [%] | activation at 100 µM (348 GPCRs [3]; [9]) [%] | activation at 100 µM (348 GPCRs [4]; [10]) [%] | activation at 100 µM (348 GPCRs [5]; [11]) [%] | activation at 100 µM (348 GPCRs [6]; [12]) [%] | activation at 100 µM (348 GPCRs [7]; [13]) [%] | % GPCR activation compared to TPA (348 GPCRs [1]; 100μM) [%] | % GPCR activation compared to TPA (348 GPCRs [1]; 10µM) [%] | activation at 100 µM (348 GPCRs [2]; [14]) [%] | activation at 100 µM (348 GPCRs [3]; [15]) [%] | activation at 100 µM (348 GPCRs [4]; [16]) [%] | activation at 100 µM (348 GPCRs [5]; [17]) [%] | activation at 100 µM (348 GPCRs [6]; [18]) [%] | activation at 100 µM (348 GPCRs [7]; [19]) [%] |
| --- | --- | --- | --- | --- | --- | --- | --- | --- | --- | --- | --- | --- | --- | --- |
| CCC(CC)COC(=O)[C@H](C)N[P@](=O)(OC[C@H]1O[C@@](C#N)(c2ccc3c(N)ncnn23)[C@H](O)[C@@H]1O)Oc1ccccc1 [remdesivir] | – | – | – | – | – | – | – | 2.076 | -5.77 | 6.06 | 1.55 | 0.0637 | -0.608 | -7.76 |
| CC(C)OC(=O)[C@H](C)N[P@](=O)(OC[C@H]1O[C@@H](n2ccc(=O)[nH]c2=O)[C@](C)(F)[C@@H]1O)Oc1ccccc1 [sofosbuvir] | – | – | – | – | – | – | – | 0.2471 | 0.836 | -0.617 | -2.66 | 0.08 | -0.818 | 0.131 |

The next lines start with results.

| activation at 100 µM (348 GPCRs [2]; [8]) [%] | activation at 100 µM (348 GPCRs [3]; [9]) [%] | activation at 100 µM (348 GPCRs [4]; [10]) [%] | activation at 100 µM (348 GPCRs [5]; [11]) [%] | activation at 100 µM (348 GPCRs [6]; [12]) [%] | activation at 100 µM (348 GPCRs [7]; [13]) [%] | % GPCR activation compared to TPA (348 GPCRs [1]; 100μM) [%] | SMILES | % GPCR activation compared to TPA (348 GPCRs [1]; 10µM) [%] | activation at 100 µM (348 GPCRs [2]; [14]) [%] | activation at 100 µM (348 GPCRs [3]; [15]) [%] | activation at 100 µM (348 GPCRs [4]; [16]) [%] | activation at 100 µM (348 GPCRs [5]; [17]) [%] | activation at 100 µM (348 GPCRs [6]; [18]) [%] | activation at 100 µM (348 GPCRs [7]; [19]) [%] |
| --- | --- | --- | --- | --- | --- | --- | --- | --- | --- | --- | --- | --- | --- | --- |
| -9.87 | -1.84 | 1.89 | -0.971 | -2.34 | -6.97 | – | N#C[C@@]1(c2ccc3c(N)ncnn23)O[C@H](CO)[C@@H](O)[C@H]1O [GS441524] | -0.5209 | – | – | – | – | – | – |
| -9.38 | -1.59 | -1.78 | -0.0903 | -1.1 | -6.03 | 0.06344 | NC(=O)c1nc(F)cnc1O [favipiravir, 6-fluoro-3-hydroxy-2-pyrazinecarboxamide] | – | – | – | – | – | – | – |
| 0.705 | -0.606 | -0.841 | -0.0765 | -1.19 | 0.0221 | – | CC(C)C(=O)OC[C@H]1O[C@@H](n2ccc(NO)nc2=O)[C@H](O)[C@@H]1O [molnupiravir] | -0.5795 | – | – | – | – | – | – |
